# Experimental data from paper PMC7557147 (Biochemical Journal, 2020).
# Legend:
# TgAPN2 [1] = target: T1, TgAPN2 (Toxoplasma gondii, UniProt S8G5K8, N1303Q/N840Q); assay type: biochemical, Toxoplasma gondii ME49; conditions: relative to hArg = 100%; 10 µM ACC substrate, 0.5 nM enzyme
# TgAPN2 [2] = target: T1, TgAPN2; test: TgAPN2 aminopeptidase activity under chelating conditions; assay type: biochemical, Toxoplasma gondii ME49; conditions: increasing EDTA concentration (0–200 mM); 20 nM enzyme, 15 µM substrate
# TgAPN2 [3] = target: T1, TgAPN2; test: Michaelis-Menten kinetics of TgAPN2 with fluorogenic Mec substrates; assay type: biochemical, Toxoplasma gondii ME49; conditions: substrate of TgAPN2, 20 nM enzyme, 37°C, pH 8.0
# recombinant TgAPN2 = conditions: ref [14]; cited from earlier work
structure (smiles),measurement,setting,value
N=C(N)NCCC[C@H](N)C(=O)O [Arg],normalised relative activity of TgAPN2 toward P1 substrate,TgAPN2 [1],81%
O=C(O)CN(CCN(CC(=O)O)CC(=O)O)CC(=O)O [EDTA],effect on TgAPN2 enzyme velocity,TgAPN2 [2],reduction in enzyme velocity
"Cc1cc(=O)oc2cc(NC(=O)[C@@H](N)CCCNC(=N)N)ccc12.Cl [L-Arg-Mec, L-arginine-7-amido-4-methylcoumarin hydrochloride]",Km,TgAPN2 [3],148 ± 5.1 µM
same,kcat,TgAPN2 [3],1017 ± 15.2 s⁻¹
same,kcat,TgAPN2 [3]; listed as Arg-Mec,1017 s⁻¹
"Cc1cc(=O)oc2cc(NC(=O)[C@@H](N)CC(C)C)ccc12.Cl [L-Leu-Mec, L-leucine-7-amido-4-methylcoumarin hydrochloride]",Km,TgAPN2 [3],31.8 ± 3 µM
same,kcat,TgAPN2 [3],1.32 ± 0.03 s⁻¹
same,kcat,TgAPN2 [3]; listed as Leu-Mec,1.32 s⁻¹
CC(C)C[C@H](N)C(=O)O [Leu],normalised relative activity of TgAPN2 toward P1 substrate,TgAPN2 [1],26%
NCCCC[C@H](N)C(=O)O [Lys],normalised relative activity of TgAPN2 toward P1 substrate,TgAPN2 [1],52%
CC(C)C[C@@H](N)[C@H](O)C(=O)N[C@H](C(=O)N[C@H](C(=O)N[C@@H](CC(=O)O)C(=O)O)C(C)C)C(C)C [amastatin],inhibition of recombinant TgAPN2 (in words),recombinant TgAPN2,inhibited
CC(C)C[C@H](NC(=O)[C@@H](O)[C@H](N)Cc1ccccc1)C(=O)O [bestatin],inhibition of recombinant TgAPN2 (in words),recombinant TgAPN2,inhibited
"NC(N)=NCCCC[C@H](N)C(=O)O [hArg, Homo-arginine]",normalised relative activity of TgAPN2 toward P1 substrate,TgAPN2 [1],100%
N[C@@H](CCc1ccccc1)C(=O)O [hPhe],normalised relative activity of TgAPN2 toward P1 substrate,TgAPN2 [1],18%
N[C@@H](CCc1ccc(O)cc1)C(=O)O [hTyr],normalised relative activity of TgAPN2 toward P1 substrate,TgAPN2 [1],54%
